From patent US20050281888A1, “Nutritional supplement for infants” (priority 2004, published 2005)

Tested on: blood lymphocytes
Test: Zinc dose response: lymphocyte response to mitogen PHA in supplemented infants
Format: in vivo, infants (human), age 4-36 months
Settings: for Lymphocyte response to PHA (stimulation index): infants age 4-36 months
Procedure: The basic concept underlying the assessment of the most optimum nutrient amounts for a given age group uses the principle of “dose-response graphs”. At least four groups of individuals were provided with various amounts of a given nutrient and their immune responses were measured using established and accepted techniques. The amount of a nutrient that gave the best response was considered the optimum amount. Dose response graphs were determined for all vitamins and trace elements considered essential for human health, particularly immunity.
Data for the dose response chart for zinc in a group of 4 to 36 month old infants is shown in FIG. 1, with the total amount of zinc taken is shown for each group. To determine the magnitude of immune response, an aliquot of blood was withdrawn from each subject in the study, blood lymphocytes were separated, washed and mixed with the mitogen phytohemagglutinin (PHA) in previously determined optimum amount. The optimum amount of PHA used in the experiments was predetermined by a set of dose response graphs using lymphocytes of a healthy donor and four different concentrations of PHA. After culture in a sterile environment for 72 hours, the cells were washed and mixed with radioactive thymidine. The same steps were undertaken in a control sample in which only the culture medium was used, not PHA. The cells were washed and radioactivity determined.
Dietary intake of zinc was calculated based on three 24-hour recalls and by the food frequency questionnaire methods.

For `[Zn]` [zinc], which “Immune response, conclusion in words” value (3 mg zinc intake in addition to zinc from a balanced diet) is on record?
The value was “best immune response”.

And the “Lymphocyte response to PHA (stimulation index)” value (supplemental zinc 3 mg)?
The value was 58.

And the “Lymphocyte response to PHA (stimulation index)” value (supplemental zinc 6 mg)?
Its value is 41.

What about the “Lymphocyte response to PHA (stimulation index)” value (supplemental zinc 9 mg) of the same compound?
The value was 32.
